{
  "source": "ChEMBL document CHEMBL1142254",
  "about": "“5'-Fluoro-5'-deoxyaristeromycin” (Bioorg Med Chem Lett, 2008)",
  "key": {"Human respirovirus 3": {"test_system": "Human respirovirus 3", "assay": "Antiviral activity against Parainfluenza 3 virus", "assay_type": "functional, organism-based"}, "HEL": {"test_system": "HEL", "assay": "Cytotoxicity against human HEL cells", "assay_type": "cell-based"}, "Sindbis virus": {"test_system": "Sindbis virus", "assay": "Antiviral activity against Sindbis virus", "assay_type": "functional, organism-based"}, "unidentified adenovirus": {"test_system": "unidentified adenovirus", "assay": "Antiviral activity against adenovirus", "assay_type": "functional, organism-based"}, "West Nile virus": {"test_system": "West Nile virus", "assay": "Antiviral activity against West Nile virus", "assay_type": "functional, organism-based"}, "Human alphaherpesvirus 1 [1]": {"test_system": "Human alphaherpesvirus 1", "assay": "Antiviral activity against thymidine kinase deficient HSV1", "assay_type": "functional, organism-based"}, "[2]": {"assay": "Cytotoxicity against rhesus monkey MA104 cells", "assay_type": "cell-based, Macaca mulatta"}, "HFF": {"test_system": "HFF", "assay": "Cytotoxicity against human HFF cells", "assay_type": "cell-based"}, "[3]": {"test_system": "Mammalian orthoreovirus 1", "assay": "Antiviral activity against Reovirus1", "assay_type": "functional, organism-based"}, "[4]": {"test_system": "Respiratory syncytial virus", "assay": "Antiviral activity against RSV", "assay_type": "functional, organism-based"}, "Human alphaherpesvirus 1 [5]": {"test_system": "Human alphaherpesvirus 1", "assay": "Antiviral activity against HSV1", "assay_type": "functional, organism-based"}, "Human alphaherpesvirus 2": {"test_system": "Human alphaherpesvirus 2", "assay": "Antiviral activity against HSV2", "assay_type": "functional, organism-based"}, "Punta Toro virus": {"test_system": "Punta Toro virus", "assay": "Antiviral activity against Punta Toro virus", "assay_type": "functional, organism-based"}, "Feline coronavirus": {"test_system": "Feline coronavirus", "assay": "Antiviral activity against Feline coronavirus", "assay_type": "functional, organism-based"}, "Cowpox virus": {"test_system": "Cowpox virus", "assay": "Antiviral activity against Cowpox virus", "assay_type": "functional, organism-based"}, "Coxsackievirus B4": {"test_system": "Coxsackievirus B4", "assay": "Antiviral activity against Coxsackie virus B4", "assay_type": "functional, organism-based"}, "A549": {"test_system": "A549", "assay": "Cytotoxicity against human A549 cells", "assay_type": "cell-based"}, "Vero": {"test_system": "Vero", "assay": "Cytotoxicity against african green monkey Vero cells", "assay_type": "cell-based", "conditions": "chlorocebus sabaeus"}, "HeLa": {"test_system": "HeLa", "assay": "Cytotoxicity against human HeLa cells", "assay_type": "cell-based"}, "Vaccinia virus": {"test_system": "Vaccinia virus", "assay": "Antiviral activity against vaccinia virus", "assay_type": "functional, organism-based", "conditions": "Orthopoxvirus vaccinia"}, "MDCK": {"test_system": "MDCK", "assay": "Cytotoxicity against dog MDCK cells", "assay_type": "cell-based, Canis lupus familiaris"}, "Hepatitis C virus": {"test_system": "Hepatitis C virus", "assay": "Antiviral activity against HCV", "assay_type": "functional, organism-based", "conditions": "Hepacivirus hominis"}, "[6]": {"test_system": "Vesicular stomatitis virus", "assay": "Antiviral activity against in Vesicular stomatitis virus", "assay_type": "functional, organism-based"}, "[7]": {"assay": "Cytotoxicity against human Huh7ET cells", "assay_type": "cell-based", "conditions": "huh-7"}, "Enterovirus": {"test_system": "Enterovirus", "assay": "Antiviral activity against rhinovirus", "assay_type": "functional, organism-based"}, "[8]": {"assay": "Cytotoxicity against african green monkey CV1 cells", "assay_type": "cell-based", "conditions": "chlorocebus aethiops, cv-1"}, "Measles morbillivirus [9]": {"test_system": "Measles morbillivirus", "assay": "Antiviral activity against measles virus MO6 by neutral red assay", "assay_type": "functional, organism-based"}, "Measles morbillivirus [10]": {"test_system": "Measles morbillivirus", "assay": "Antiviral activity against measles virus MO6 by visual assay", "assay_type": "functional, organism-based"}, "[11]": {"assay": "Cytotoxicity against cat CRFK cells", "assay_type": "cell-based, Felis catus"}},
  "note": "Active and inactive are the calls of the source. No cut-off for these calls is given here.",
  "data": [
    {"molecule": "Nc1ncnc2c1ncn2[C@@H]1C[C@H](CF)[C@@H](O)[C@H]1O", "values": [
      {"measurement": "Activity", "setting": "Human respirovirus 3", "result": "inactive"},
      {"measurement": "Activity", "setting": "HEL", "result": "Non-toxic"},
      {"measurement": "Activity", "setting": "Sindbis virus", "result": "inactive"},
      {"measurement": "Activity", "setting": "unidentified adenovirus", "result": "inactive"},
      {"measurement": "Activity", "setting": "West Nile virus", "result": "inactive"},
      {"measurement": "Activity", "setting": "Human alphaherpesvirus 1 [1]", "result": "inactive"},
      {"measurement": "Activity", "setting": "[2]", "result": "Non-toxic"},
      {"measurement": "Activity", "setting": "HFF", "result": "Non-toxic"},
      {"measurement": "Activity", "setting": "[3]", "result": "inactive"},
      {"measurement": "Activity", "setting": "[4]", "result": "inactive"},
      {"measurement": "Activity", "setting": "Human alphaherpesvirus 1 [5]", "result": "inactive"},
      {"measurement": "Activity", "setting": "Human alphaherpesvirus 2", "result": "inactive"},
      {"measurement": "Activity", "setting": "Punta Toro virus", "result": "inactive"},
      {"measurement": "Activity", "setting": "Feline coronavirus", "result": "inactive"},
      {"measurement": "Activity", "setting": "Cowpox virus", "result": "inactive"},
      {"measurement": "Activity", "setting": "Coxsackievirus B4", "result": "inactive"},
      {"measurement": "Activity", "setting": "A549", "result": "Non-toxic"},
      {"measurement": "Activity", "setting": "Vero", "result": "Non-toxic"},
      {"measurement": "Activity", "setting": "HeLa", "result": "Non-toxic"},
      {"measurement": "Activity", "setting": "Vaccinia virus", "result": "inactive"},
      {"measurement": "Activity", "setting": "MDCK", "result": "Non-toxic"},
      {"measurement": "Activity", "setting": "Hepatitis C virus", "result": "inactive"},
      {"measurement": "Activity", "setting": "[6]", "result": "inactive"},
      {"measurement": "Activity", "setting": "[7]", "result": "Non-toxic"},
      {"measurement": "Activity", "setting": "Enterovirus", "result": "inactive"},
      {"measurement": "Activity", "setting": "[8]", "result": "Non-toxic"},
      {"measurement": "EC50", "setting": "Measles morbillivirus [9]", "result": 2800, "unit": "nM"},
      {"measurement": "EC50", "setting": "Measles morbillivirus [10]", "result": 13, "unit": "µM"},
      {"measurement": "Activity", "setting": "[11]", "result": "Non-toxic"}
    ]}
  ]
}
